From patent US7041661B2, “Use of thiazolobenzoheterocycles for treating multiple sclerosis” (Aventis Pharmaceuticals Inc., priority 2002, dated 2006)

What was measured:
[1] = system: Experimental Allergic Encephalomyelitis (EAE) of female SJL mice; assay: PLP 139-151 induced EAE in SJL/J mice, daily neurological score; assay type: in vivo, mouse
Description: The utility of the thiazobenzohetercyclic compounds of formula I for the treatment of various conditions associated with multiple sclerosis can be assessed by measuring their ability to inhibit effects of experimental allergic encephalomyelitis (EAE) in laboratory animals.
Experimental Autoimmune Encephalomyelitis (EAE) is a T-cell-mediated autoimmune disease of the nervous system that develops in susceptible animals following sensitization with either whole spinal cord homogenate or a myelin component. It is known that EAE reflects or mimics many of the pathophysiological steps in MS, including the role of certain adhesion molecules, the influence of T cells and antibodies reactive to components of the myelin sheath, the participation of metalloproteases in penetrating the blood-brain barrier, and the cytotoxic role of certain cytokines. One of the marketed MS therapies, glatiramer acetate (Copaxone®) was developed preclinically based on its success in treating various models of EAE.
EAE was induced in female SJL/J mice (8 wks old, from Jackson Laboratories) by immunization with the myelin Proteolipid Protein (PLP 139-151) from BACHEM, Bioscience. PLP139-151 was dissolved in H2O:PBS (1:1) solution to a concentration of 7.5 mg/10 ml (for 75 ug PLP per mouse) and emulsified with an equal volume of CFA supplemented with 40 mg/10 ml heated-killed mycobacterium tuberculosis H37Ra (BD Bioscience). Mice were injected s.c. with 0.2 ml of peptide emulsion in the abdominal flank (0.1 ml on each side). On the same day and 72 hr later, mice were injected i.v. with 35 ng and 50 ng of Bordetella Pertussis toxin (List Biological Laboratories ) in saline, respectively.
Compound A, one representative of thiazolobenzoheterocyclic compounds, was examined in the PLP/SJL mouse EAE model.
Study 1: There were five groups, i.e., vehicle (water), Compound A at doses of 5, 10 and 20 mg/kg and dexamethasone (DEX) at a dose of 3 mg/kg. Treatment was begun on day 7 after PLP immunization. Mice were dosed twice per day for 22 days. Results are as follows:
Study 2: There were five groups, i.e., vehicle (water), Compound A at doses of 10, 20 and 30/40 mg/kg and dexamethasone (DEX) at a dose of 3 mg/kg. Treatment was begun on day 7 after PLP immunization. Mice were dosed twice per day for 18 days.

[2] = system: Experimental Allergic Encephalomyelitis (EAE) of female DA (Dark Agouti) rats; assay: Rat spinal cord homogenate induced EAE in DA rats, daily neurological score; assay type: in vivo; settings: doses of 1, 3 and 10 mg/kg p.o., twice daily for 28 days from one day post-immunization
Protocol: EAE was induced in female DA (Dark Agouti) rats (8 wks old, from Harlan) by immunization with the 25% w/v rat spinal cord homogenate (r-SCH) in saline emulsified with an equal volume of CFA supplemented with 40 mg/10 ml heated-killed mycobacterium tuberculosis H37Ra (BD Bioscience). Rats were injected s.c. with 0.2 ml of emulsion in the base of tail.
Rats were scored daily before treatment starting from day 5 post-immunization through the entire experiment by a well-known behavioral scale system: Score 0, normal; 0.5, partial limp tail; 1, complete limp tail; 2, abnormal gait; 3, partial hind limb paralysis, and mice unable to walk normally; 3.5, one leg is completely paralyzed, and one leg is partially paralyzed; 4, complete hind limb paralysis; 4.5, Legs are completely paralyzed and Moribund; 5, death due to EAE. Compound A and Compound B (active metabolite of Compound A), two representatives of thiazolobenzoheterocyclic compounds, were examined in DA rat EAE procedure.
Compound A and Compound B were given one-day post-immunization, p.o. route, twice daily for 28 days.

[3] = Study 2, SJL EAE mice, twice per day for 18 days from day 7

N=c1sc2cc(C(F)(F)F)cc3c2n1CC[S+]([O-])C3 (racemic) [Compound A, (R,S)-2-imino-9-trifluoromethyl-4,5-dihydro-2H,7H-thiazolo[3,4,5-de][4,1]benzothiazepine-6-oxide]
neurological deficits in the EAE mice (FIG. 1) ([1]; Study 1, doses of 10 and 20 mg/kg p.o., twice per day for 22 days from day 7 after PLP immunization, vs vehicle): significantly reduced
EAE incidence [1, 3]: reduced
disease onset [1, 3]: delayed
neurological scores in SJL EAE mice ([1]; Study 2, doses of 10 and 20 mg/kg, twice per day for 18 days from day 7 after PLP immunization): significant reduced
EAE incidence [2]: significantly reduced
cumulative neurological scores [2]: significantly reduced
maximal neurological scores [2]: significantly reduced

N=c1sc2cc(C(F)(F)F)cc3c2n1CCS(=O)(=O)C3 [Compound B, (R,S)-2-imino-9-trifluoromethyl-4,5-dihydro-2H,7H-thiazolo[3,4,5-de][4,1]benzothiazepine-6,6-dioxide]
EAE incidence [2]: significantly reduced
cumulative neurological scores [2]: significantly reduced
maximal neurological scores [2]: significantly reduced
